In the supplement of paper PMC10307832:

How the values were obtained:
Assay in all cases: relative viability (nuclei count vs DMSO), 5 days (fraction); higher = more cells survive
[1] = compound: COc1cc2nccc(Oc3ccc(NC(=O)C4(C(=O)Nc5ccc(F)cc5)CC4)cc3)c2cc1OC [Cabozantinib] + CS(=O)(=O)N1CCN(Cc2cc3nc(-c4cccc5[nH]ncc45)nc(N4CCOCC4)c3s2)CC1 [Pictilisib] (partner 1 µM)
In short: (§1)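 Lung cancer cell lines were pin-tool dosed in 1536-well plates on the day after seeding, with either a lone drug or a fixed anchor-drug dose plus five library-drug doses (not always all listed) in √10 steps. Nuclei were counted on 4× images after 5 days. Relative viability is the ratio of treated-well to vehicle-well nuclei counts, with each value a median of duplicate plates.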

[2] = compound: COc1cc2nccc(Oc3ccc(NC(=O)C4(C(=O)Nc5ccc(F)cc5)CC4)cc3)c2cc1OC [Cabozantinib] + C[C@]1(O)C[C@@H](c2nc(-c3ccc4ccc(-c5ccccc5)nc4c3)c3c(N)nccn32)C1 [Linsitinib] (partner 1 µM)
In short: as §1

[3] = compound: O[C@@H](COc1cccc2ncccc12)CN1CCN([C@@H]2c3ccccc3[C@@H]3[C@H](c4ccccc42)C3(F)F)CC1 [Zosuquidar] + CC(=O)c1c(C)c2cnc(Nc3ccc(N4CCNCC4)cn3)nc2n(C2CCCC2)c1=O [Palbociclib] (partner 0.5 µM)
In short: as §1

[4] = compound: O[C@@H](COc1cccc2ncccc12)CN1CCN([C@@H]2c3ccccc3[C@@H]3[C@H](c4ccccc42)C3(F)F)CC1 [Zosuquidar] + Nc1nc2[nH]cc(CCc3ccc(C(=O)N[C@@H](CCC(=O)O)C(=O)O)cc3)c2c(=O)[nH]1 [Pemetrexed] (partner 0.2 µM)
In short: as §1

Cell Line	relative viability ([1]; first compound 0.06325 µM)	relative viability ([1]; first compound 0.2 µM)	relative viability ([1]; first compound 0.6325 µM)	relative viability ([1]; first compound 2 µM)	relative viability ([2]; first compound 0.02 µM)	relative viability ([2]; first compound 0.06325 µM)	relative viability ([2]; first compound 0.2 µM)	relative viability ([2]; first compound 0.6325 µM)	relative viability ([2]; first compound 2 µM)	relative viability ([3]; first compound 0.01 µM)	relative viability ([3]; first compound 0.03162 µM)	relative viability ([3]; first compound 0.1 µM)	relative viability ([3]; first compound 0.3162 µM)	relative viability ([3]; first compound 1 µM)	relative viability ([4]; first compound 0.01 µM)	relative viability ([4]; first compound 0.03162 µM)	relative viability ([4]; first compound 0.1 µM)	relative viability ([4]; first compound 0.3162 µM)	relative viability ([4]; first compound 1 µM)	relative viability ([1]; first compound 0.02 µM)
LK-2	0.632	0.565	0.625	0.588	0.724	0.73	0.619	0.633	0.716	0.666	0.722	0.563	0.768	0.715	0.281	0.306	0.205	0.26	0.271	
SW 1573	0.573	0.543	0.411	0.449	0.702	0.799	0.842	0.604	0.63	0.44	0.4	0.541	0.405	0.372	0.781	0.751	0.952	0.941	0.786	0.483
NCI-H1915	1.04	0.903	0.949	0.908	1.1	1.12	1.09	1.01	1.12	0.501	0.542	0.501	0.635	0.507	0.518	0.527	0.413	0.489	0.474	0.929
NCI-H661	0.476	0.391	0.394	0.331	0.621	0.503	0.557	0.455	0.413	0.404	0.4	0.415	0.416	0.408	0.914	0.902	0.846	0.928	0.851	0.301
NCI-H520	0.291	0.28	0.312	0.376	0.923	1.05	0.938	0.796	0.815	0.201	0.195	0.198	0.179	0.208	0.742	0.723	0.788	0.85	0.899	0.318
COR-L 105	0.385		0.43	0.37	0.945	1.04		0.937	0.839	0.372	0.376	0.478	0.417	0.385	1.27	1.01	1.18	1.1	1.16	0.343
NCI-H2009	0.882	0.882	0.754	0.959	1.23	1.17	1.18	1.19	1.23	0.204	0.183	0.154	0.251	0.211	1.04	1.04	1.01	0.902	1.06	0.979
NCI-H1563	0.607	0.637	0.621	0.66	0.853	1.3	1.37	1.11	0.957						0.623	0.786	0.679	0.729	0.743	0.572
RERF-LC-KJ	0.646	0.578	0.567	0.485	0.909	0.885	0.813	0.883	0.875	1.1	1.07	1.06	1.1	1.14	0.456	0.459	0.478	0.518	0.467	0.501
NCI-H1703	0.229	0.249	0.226	0.18	0.601	0.35	0.287	0.165	0.146											0.214
EBC-1	0.193	0.169	0.166	0.107	1.04	0.942	0.432	0.121	0.116											0.29
ABC-1	0.707	0.681	0.701	0.819	0.719	0.816	0.81	0.87	0.754	0.616	0.685	0.68	0.84	0.599						0.604
NCI-H1650	0.709	0.606	0.536	0.532						0.373	0.31	0.365	0.351	0.337	0.378	0.373	0.327	0.479	0.401	0.515
NCI-H1648										0.297	0.319	0.289	0.305	0.242	1.57	0.99	0.568	0.717	0.627	
A549	0.57	0.502	0.514	0.379	0.621	0.641	0.481	0.534	0.373											0.572
NCI-H1299	0.924	0.953	0.876	0.733	1.03	1	0.982	0.96	0.966											0.961
NCI-H2170	0.321	0.274	0.376	0.296						0.364	0.42	0.397	0.426	0.379	0.283	0.263	0.263	0.269	0.255	0.259
NCI-H522										1.14	0.869	1.01	1.09	0.908	0.958	0.897	0.968	0.843	1.17	
Calu-6	1.05	0.878	0.814	0.78	1.06	0.975	1.01	0.871	0.881											0.984
ChaGo-K-1	0.933	0.676	0.405	0.647						0.885	0.994	1.02	0.917	0.947	0.266	0.255	0.263	0.266	0.26	0.533
NCI-H596	0.408	0.388	0.27	0.374	1.19	1.17	1.11	0.997	0.994						0.456	0.482	0.51	0.507	0.544	0.389
